In publication doi:10.1101/2024.07.07.602414v1 (bioRxiv, 2024):
Each block holds one substance with its values, some of them ahead of it.

Experiments:
[1] = type: physicochemical; conditions: 30 mg/mL, CLSM and fast FLIM
[2] = Droplet microstructure; type: physicochemical; conditions: CLSM and fast FLIM with SBD dye, 448 nm excitation
[3] = Encapsulation efficiency of guest fluorophores by droplets; type: physicochemical
[4] = Redox controlled droplet formation through LLPS; type: physicochemical

droplet microstructure before oxidation ([1]; pH 7.5 (1 M NaOH), SBD dye): forms homogeneous droplets
droplet microstructure after oxidation by H2O2 ([1]; pH 7.5, 1 μL H2O2 (1M), 5 mins at room temperature): transform into the multiphasic droplets
Substance: WCRY

droplet microstructure (core-shell or homogeneous) [2]: show similar results with the R group
Substance: WGWW

behaviour of droplets when the fluorophores were added, pH 7.5 ([3]; pH 7.5, fluorophores added): tend to aggregates
behaviour of droplets when the fluorophores were added, pH 9.0 ([3]; pH 9.0, fluorophores added): relatively stable
Substance: WYWW

solubility in aqueous solution ([4]; aqueous solution, words only): very good solubility
state of the droplet emulsion after adding DTT ([4]; oxidised peptide, then DTT, 5 mins at room temperature, CLSM / bright field): clear solution
concentration at which the peptide still does not undergo LLPS ([4]; reduced (thiol) peptide, aqueous solution): 80 mg/mL
Substance: YCGY

droplet microstructure (core-shell or homogeneous) [2]: show similar results with the R group
Substance: YGYY

droplet microstructure (core-shell or homogeneous) [2]: formed homogeneous droplets
Substance: YRYY
